The values below are quoted from earlier work in patent US8853187B2, “Composition comprising bisphosphonates for prevention and/or treatment of metabolic diseases of bones, process for preparing such composition and use thereof” (Gador S.A., priority 2001, dated 2014).

The conditions of this data set: ranking within the group of bisphosphonates, in words.

The structures appear in SMILES notation.

In the case of `CN(C)CCC(O)(P(=O)(O)O)P(=O)(O)O` [Olpadronate], the “solubility relative to other bisphosphonates” value is listed as “most soluble”.
